Results: US8614236B2 (University of Washington, priority 2006, dated 2013)
Entries after “also recorded” stand apart in the source; their conditions may differ.

What was measured:
[1] = system: PASMCs; assay: Changes in membrane potential (Em) in PASMCs, DiBAC4(3) fluorescence; type: cell-based, rat; conditions: 100 μM
Protocol: (§1) The method for obtaining single PASMCs has been described previously in Shimoda L. A., et al., Am J Physiol 274: 842-853 (1998), which is hereby incorporated by reference in its entirety. Intrapulmonary arteries (200-600 μm o.d.) were isolated from male Wistar rats (250-350 g) and cleaned of connective tissue. After the lumen was gently rubbed with a cotton swab to remove the endothelial cells, the arteries were allowed to recover for 30 minutes in cold (4° C.) HBSS containing (in mM): 130 NaCl, 5 KCl, 1.2 MgCl2, 1.5 CaCl2, 10 N-[2-hydroxyethyl]piperazine-N′-[2-ethanesulfonic acid] (HEPES) and 10 glucose, with pH adjusted to 7.2 with 5 M NaOH, followed by 20 minutes in reduced-Ca^2+ (20 μM CaCl2) HBSS at room temperature. The tissue was enzymatically digested in reduced-Ca^2+ HBSS containing collagenase (type I; 1750 U/ml), papain (9.5 U/ml), bovine serum albumin (2 mg/ml) and dithiothreitol (1 mM) at 37° C. for 20 minutes. Following digestion, single smooth muscle cells were dispersed by gentle trituration with a wide-bore transfer pipette in Ca^2+-free HBSS and the cell suspension was placed on 25 mm glass cover slips. PASMCs were transiently cultured in Ham's-F-12 media supplemented with 0.5% fetal bovine serum and 1% penicillin/streptomycin for 24-48 hrs. before study.
Changes in membrane potential were measured using the fluorescence dye, DiBAC4(3), which was excited at 490 nm and detected at 510 nm. Cells were loaded by continuous perfusion with Kreb's solution containing 500 nM DiBAC4(3) and were perfused for at least 15 minutes before beginning measurements to insure stable uptake of dye. Baseline DiBAC4(3) fluorescence was monitored for 5 minutes with control Kreb's, followed by 10 minutes with Kreb's in the presence or absence of AZ (100 μM). At the end of this period, cells were challenged with KCl (60 mM) or endothelin-1 (ET-1) (10^−8 M). Since DiBAC4(3) is a single wavelength dye, any change in the concentration of the dye in the perfusion medium (i.e., differing concentrations between perfusion reservoirs) could result in a change in fluorescence that is not due to a change in membrane potential. To minimize the possibility of this type of error, all experiments were performed using inflow from a single reservoir into which AZ, KCl or ET-1 were dissolved directly.
AZ has recently been proposed to alter the activation of Ca^2+-activated K^+ channels, causing hyperpolarization. See Pickkers P., et al., Br J Pharmacol 132: 443-450 (2001); Tricarico D., et al., Ann Neurol 48: 304-312 (2000); and Tricarico D., et al., Faseb J 18: 760-761 (2004), which are hereby incorporated by reference in their entirety. Since depolarization is believed to contribute to the hypoxia-induced increase in [Ca^2+]i, AZ-induced hyperpolarization could prevent activation of voltage-gated Ca^2+ channels and an increase in [Ca^2+]i in response to hypoxia. In order to test this possibility, the Em-sensitive fluorescent dye, DiBAC4(3) was used. […] Baseline fluorescence was relatively stable over time, decreasing by 4.11±0.4% over 10 minutes (n=90 cells).

[2] = system: humans; conditions: 250 mg tid; Balanos et al. abstract 2006; cited from earlier work
[3] = system: PASMCs; assay: KCl-induced Ca2+ responses in PASMCs; type: cell-based, rat
Protocol: as §1, with “Intrapulmonary” for “The method for obtaining single PASMCs has been described previously in Shimoda L. A., et al., Am J Physiol 274: 842-853 (1998), which is hereby incorporated by reference in its entirety. Intrapulmonary”, “The tissue was enzymatically digested in reduced-Ca^2+ HBSS containing collagenase (type I; 1750 U/ml), papain (9.5 U/ml), bovine serum albumin (2 mg/ml) and dithiothreitol (1 mM) at 37° C. for 20 minutes.” left out
Acute hypoxia increases intracellular [Ca^2+] in pulmonary arterial smooth muscle by enhancing capacitative Ca^2+ entry. […] Ratiometric measurement of fluorescence from the dye was performed on a workstation (Intracellular Imaging Inc, Cincinnati, Ohio) consisting of a Nikon TSE 100 Ellipse inverted microscope with epi-fluorescence attachments. The light beam from a xenon arc lamp was filtered at 340 and 380 nm, and focused onto the PASMCS under examination via a 20× fluorescence objective (Super Fluor 20, Nikon). Light emitted from the cell at 510 nm was returned through the objective and detected by a cooled CCD imaging camera. An electronic shutter (Sutter Instruments) was used to minimize photobleaching of dye. Protocols were executed and data collected on-line with InCyte software (Intracellular Imaging Inc). [Ca^2+]i was estimated from in vitro calibration solutions.

## CC(=O)Nc1nnc(S(N)(=O)=O)s1 [AZ, acetazolamide]
[1]
  change in basal DiBAC4(3) fluorescence (basal Em): −2.86±4.5%
  effect on basal Em: no significant effect
[1]; ET-1
  increase in DiBAC4(3) fluorescence induced by ET-1 in presence of compound: 66.0±10.4%
[1]; KCl
  increase in DiBAC4(3) fluorescence induced by KCl in presence of compound: 53.13±14.8%
[2]
  reduction of HPV in humans: 50%
[3]; 100 μM
  effect on KCl-induced increase in [Ca^2+]i: no effect; also recorded: not altered
[3]; KCl 60 mM, pretreatment 100 μM
  [Ca^2+]i after KCl: 292.6 ± 21.2 nM
[3]; KCl 60 mM, pretreatment 100 μM, control 123.4±20.6 nM
  mean change in [Ca^2+]i in response to KCl: 134.7 ± 18.2 nM
[3]; pretreatment 100 μM
  [Ca^2+]i before KCl: 157.8 ± 11.9 nM
